Literature values, collected in patent publication US10363268B2, “Proton-binding polymers for oral administration” (Tricida, Inc., priority 2013, dated 2019).

Tested on: adult patients with CKD

O=C([O-])O.[Na+] [sodium bicarbonate, Sodium bicarbonate]
patients experiencing rapid progression (rapid decline of CrCl >3 ml/min per 1.73 m^2/yr) (CKD patients, 2 years): 9% | patients who developed ESRD (CKD patients, 2 years, ESRD = CrCl<10 ml/min): 6.5% | decline in CrCl (CKD patients, oral sodium bicarbonate for 2 years, average dose 1.82 g/day): 1.88 ml/min per 1.73 m^2 | relative risk of ESRD (versus control group): 0.13 | relative risk of rapid progression (versus control group): 0.15
